The results in this text go back to patent publication US5789439A, “Pharmaceutical use of forskolin derivatives” (Nippon Kayaku Kabushiki Kaisha, priority 1990, dated 1998).

The term IC50 denotes the concentration that gives 50% inhibition.

Assay [1] relates to collagen-induced aggregation. Put plainly: Collagen-induced aggregation after intravenous administration to healthy adults. The class given is in vivo, healthy adults (human). As to conditions: i.v. 0.8 μg/kg/min for one hour, mean of four subjects. As to the method: A freeze-dried preparation comprising NKH-477 was dissolved in a physiological saline and administered intravenously to four healthy adults at a rate of 0.8 μg/kg/min for one hour. The degrees of ADP-induced aggregation, epinephrine-induced aggregation and collagen-induced aggregation upon end of administration were measured and compared with those before administration (each figure is the average of measurements on the four subjects).

Assay [2] has as its system NB-1 cells (a human neuroblastoma strain). Put plainly: Differentiation inducing effect for NB-1 cells. In kind it is cell-based. As to conditions: 4-hour incubation. As to the method:
The differentiation inducing effect for the NB-1 cells (a human neuroblastoma strain: cell strain derived from neuroblastoma generated in infantile adrenal gland) was examined. The NB-1 cells were applied to a 96-well plate at a rate of 2×10^3 cells/well and precultured for 3 days. After attachment and growth were stabilized, the medium (RPMI 1640+10% fetal calf serum+SM.PC) was exchanged and a 10 μl solution of each test compound was added. Then, the cells were kept under constant observation to determine the occurrence or non-occurrence of differentiation. 2 mM (1.037 mg/ml) of dibutyryl cAMP dissolved in RPMI 1640 was used as positive control. NKH-477 and 14,15-dihydro-6-(3-dimethylaminopropionyl)forskolin hydrochloride were dissolved in a physiological saline. Forskolin was dissolved in DMSO and diluted with a physiological saline. The criterion for judgment of morphological change in differentiation is as follows. The figures in the parentheses are the ratio of the differentiated cells to the whole cells. It was confirmed that DMSO was totally devoid of differentiation inducing and promoting action at the concentrations used in this test.

Assay [3] deals with collagen-induced aggregation of rabbit blood thrombocyte. Put plainly: Collagen-induced platelet aggregation inhibition, rabbit platelet rich plasma. In kind it is cell-based. As to the method:
(§1) The platelet aggregation inhibitory action of NKH-477 was examined on collagen-induced aggregation and ADP-induced aggregation of rabbit blood thrombocyte. The male Japanese white rabbits (body weight: 2.4-2.8 kg, procured from Tokyo Experimental Animals Co., Ltd.) were divided into groups of 5. The rabbits were etherized and blood was collected from the carotid artery of each rabbit. A 3.8% sodium citrate solution (final concentration: 0.38%) was added to a portion of blood collected from each group of rabbits to obtain platelet rich plasma (PRP). The remaining portion of blood was centrifuged at 3,000 r.p.m. for 15 minutes to obtain platelet poor plasma (PPP). First, permeability of PRP and PPP was determined by using an aggregometer (RMA-31 mfd. by Rika Denki Kogyo K. K.) and set at 0% and 100%, respectively. Separately from the above operation, 250 μl of PRP was placed in a cuvette and after preliminary heating at 37° C. for 2 minutes, 20 μl of specimen was added and incubated under stirring for 2 minutes. Then 10 μl of ADP (Sigma, final conc.: 3×10^-6 M) or collagen (Hormon-Chemie, final conc.: 10 μg/ml) was added and the transmission rate was measured. The maximum transmission rate observed in this operation was termed as the maximum aggregation rate. Recording in this operation was conducted on an ink-written recorder (B-381L mfd. by Rika Denki Kogyo K. K.). NKH-477 was dissolved in a physiological saline to make concentrations of 10^-8 to 10^-5 M. Forskolin dissolved in ethanol was used as control.

Assay [4] concerns femoral blood flow. As to the kind of experiment: Effect on femoral blood flow in anesthetized dogs. In kind it is in vivo, dog. As to conditions: for Increase in femoral blood flow rate: mean ± SE. As to the method: (1) Effect on femoral blood flow in anesthetized dogs was tested.
A non-cannulating probe (FF-030T mfd. by Nihon Kohden K. K.) of an electromagnetic flow meter (MFV-2100 mfd. by Nihon Kohden K. K.) was placed around the left femoral artery of a dog anesthetized with pentobarbital to measure femoral bloow flow rate. The femoral blood flow rate was recorded on an ink-written recorder (WI-681G by Nihon Kohden K. K.).
NKH-477 was dissolved in a physiological saline and injected into the right cephalic vein through a Nelaton's tube.

Assay [5] relates to ADP-induced aggregation of rabbit blood thrombocyte. As to the kind of experiment: ADP-induced platelet aggregation inhibition, rabbit platelet rich plasma. In kind it is cell-based. As to conditions: Oryctolagus cuniculus, rabbit PRP, ADP 3×10^-6 M, mean, n = 5, read-out: Platelet aggregation inhibitory action (IC50), ADP-induced aggregation. As to the method:
as §1, with “NKH-477 was dissolved in a physiological saline to make concentrations of 10^-8 to 10^-5 M. Forskolin dissolved in ethanol was used as control.” left out

Where a name gives a salt, the structure may show the parent alone.

In the case of `C=C[C@@]1(C)CC(=O)[C@]2(O)[C@@]3(C)[C@@H](O)CCC(C)(C)[C@@H]3[C@H](OC(=O)CCN(C)C)[C@H](OC(C)=O)[C@@]2(C)O1` [NKH-477, 6-(3-dimethylaminopropionyl)forskolin hydrochloride], the “Collagen-induced aggregation upon end of administration” value in assay [1] (before administration 70.3%) is given as 45.8%. Besides, the “Inhibition rate, Collagen-induced aggregation” value in assay [1] came to 38.7%. Moreover, the “Effect (differentiation inducing)” value in assay [2] (Dose 1.56 μM) was “± (slight (<20%))”; in assay [2] (Dose 6.25 μM) it was “++ (heavy (>80%))”; in assay [2] (Dose 25.00 μM), “++ (heavy (>80%))”; in assay [2] (Dose 100.00 μM) it was “++ (heavy (>80%))”. For the same molecule, the IC50 was found to be 302 nM in assay [3] (Oryctolagus cuniculus, Platelet, rabbit PRP, collagen 10 μg/ml, mean, n = 5, read-out: Platelet aggregation inhibitory action (IC50), Collagen-induced aggregation) and 234 nM in assay [5]. Also, the “platelet aggregation inhibitory action relative to forskolin” value in assay [3] (from Table 1-1 (collagen- and ADP-induced), vs forskolin) is “over 10 times”. For the same molecule, the “Increase in femoral blood flow rate” value in assay [4] (1 μg/kg i.v., n = 6 (SE 2.9 printed)) came to 7.6%; in assay [4] (3 μg/kg i.v., n = 6 (SE 5.2 printed)) it was 22.9%; in assay [4] (10 μg/kg i.v., n = 6 (SE 17.7 printed)) it was 61.7%; in assay [4] (printed 30 μmg/kg i.v., n = 6 (SE 28.7 printed)) it was 62.2%. For the same molecule, the “blood flow rate in the femoral artery” value in assay [4] (intravenous injection of 1-10 μg/kg) is “increased the blood flow rate in the femoral artery dose-dependently”.
